In the OPERA property sets (Mansouri et al. 2018) one finds logP data, which are given here for 37 compounds.

With `Cc1ncc(CO)c(C=NNc2ccccn2)c1O`, the logP (commonly a log measure of how a compound divides between an organic and an aqueous phase) came out at 2.46.
With `Cc1ncc(CO)c(C=NNC(=O)c2ccco2)c1O` the figure was 1.39; with `COc1ccc(C(=O)NN=Cc2c(O)ccc3ccccc23)cc1`, 4.06.
With `O=C(NN=Cc1ccccc1O)c1cccc(Cl)c1` the figure was 3.83; with `O=C(NN=Cc1ccccc1O)c1ccc([N+](=O)[O-])cc1`, 3.03; with `Cc1ncc(CO)c(C=NNC(=O)c2ccccc2)c1O`, 2.23.
Take `Cc1ccc(C(=O)NN=Cc2c(CO)cnc(C)c2O)cc1`: the logP came out at 2.54.
With `O=C(NN=Cc1c(O)ccc2ccccc12)c1ccc([N+](=O)[O-])cc1` the figure was 3.58; with `CC(=O)NN=Cc1c(CO)cnc(C)c1O`, 0.65.
The compound `Oc1ccccc1C=NNc1ccccn1` registered a logP of 3.24.
Next, `Cc1ncc(CO)c(C=NNC(=O)c2ccc(N)cc2)c1O`: 1.19.
Next, `Cc1ncc(CO)c(C=NNC(=O)c2ccc(C(C)(C)C)cc2)c1O`: 3.73; `Nc1ccc(C(=O)NN=Cc2ccccc2O)cc1`: 2.16.
As to `Cc1ncc(CO)c(C=NNC(=O)c2cccc(F)c2)c1O`, the logP worked out at 2.42.
For `O=C(NN=Cc1ccccc1O)c1ccncc1`, the log partition coefficient (logP) turned out to be 2.16.
Next, `O=C(NN=Cc1c(O)ccc2ccccc12)c1ccco1`: 3.41; `Nc1ccc(C(=O)NN=Cc2c(O)ccc3ccccc23)cc1`: 3.04.
With `O=C(NN=Cc1ccccc1O)c1ccco1` the figure was 2.67.
Next, `CC(=O)NN=Cc1c(O)ccc2ccccc12`: 2.91; `O=C(NN=Cc1ccccc1O)c1cccc(F)c1`: 3.41.
`Cc1ncc(CO)c(C=NNC(=O)c2cccc(Cl)c2)c1O` returned a logP of 2.96.
With `Cc1ncc(CO)c(C=NNC(=O)c2cccc(Br)c2)c1O` the figure was 3.07.
With `O=C(NN=Cc1c(O)ccc2ccccc12)c1cccc(F)c1` the figure was 4.06.
As to `CC(C)(C)c1ccc(C(=O)NN=Cc2ccccc2O)cc1`, the logP came out at 4.73.
`O=C(NN=Cc1c(O)ccc2ccccc12)c1ccc(O)cc1` had a logP of 3.95.
With `COc1ccc(C(=O)NN=Cc2c(CO)cnc(C)c2O)cc1` the figure was 2.47; with `O=C(NN=Cc1ccccc1O)c1ccccc1`, 3.01.
`Cc1ncc(CO)c(C=NNC(=O)c2ccc([N+](=O)[O-])cc2)c1O` showed a logP of 1.55.
Next, `O=C(NN=Cc1ccccc1O)c1cccs1`: 3.03.
Next, `CC(=O)NN=Cc1ccccc1O`: 1.71; `O=C(NN=Cc1ccccc1O)c1ccc(O)cc1`: 2.56; `Cc1ncc(CO)c(C=NNC(=O)c2ccncc2)c1O`: 1.14.
Next, `COc1ccc(C(=O)NN=Cc2ccccc2O)cc1`: 3.34; `Cc1ncc(CO)c(C=NNC(=O)c2ccc(O)cc2)c1O`: 1.89.
`O=C(NN=Cc1ccccc1O)c1cccc(Br)c1` showed a logP of 3.91.
The compound `Cc1ncc(CO)c(C=NNC(=O)c2cccs2)c1O` yielded a log partition coefficient (logP) of 2.11.
With `Cc1ccc(C(=O)NN=Cc2ccccc2O)cc1` the figure was 3.39.
